Tests used:
[1] = system: AMARE; assay: Pre-emergence herbicidal action against AMARE; type: in vivo, Amaranthus retroflexus
Source text: (§1) Seeds of monocotyledonous and dicotyledonous weed plants and crop plants are laid out in sandy loam soil in wood-fiber pots and covered with soil. The compounds of the invention, formulated in the form of wettable powders (WP) or as emulsion concentrates (EC), are then applied to the surface of the covering soil in the form of an aqueous suspension or emulsion at a water application rate equivalent to 600 to 800 l/ha, with addition of 0.2% wetting agent. After the treatment, the pots are placed in a greenhouse and kept under good growth conditions for the trial plants. The damage to the test plants is scored visually after a test period of 3 weeks by comparison with untreated controls (herbicidal activity in percent (%): 100% activity=the plants have died, 0% activity=like control plants). […] The tables below illustrate, in an illustrative manner, the post-emergence herbicidal action of the compounds of the invention, the herbicidal activity being stated in percent.

[2] = system: AMARE; assay: Post-emergence herbicidal action against AMARE; type: in vivo, Amaranthus retroflexus; conditions: 20 g/ha, visual assessment about 3 weeks after treatment, 100% = plants have died, 0% = like control plants
Experimental: (§2) Seeds of monocotyledonous and dicotyledonous weed and crop plants are laid out in sandy loam soil in wood-fiber pots, covered with soil and cultivated in a greenhouse under good growth conditions. 2 to 3 weeks after sowing, the test plants are treated at the one-leaf stage. The compounds of the invention, formulated in the form of wettable powders (WP) or as emulsion concentrates (EC), are then sprayed onto the green parts of the plants in the form of an aqueous suspension or emulsion at a water application rate equivalent to 600 to 800 l/ha, with addition of 0.2% wetting agent. After the test plants have been left to stand in the greenhouse under optimal growth conditions for about 3 weeks, the action of the preparations is assessed visually in comparison to untreated controls (herbicidal action in percent (%): 100% activity=the plants have died, 0% activity=like control plants). […] The tables below illustrate, in an illustrative manner, the post-emergence herbicidal action of the compounds of the invention, the herbicidal activity being stated in percent.

[3] = system: ABUTH; assay: Pre-emergence herbicidal action against ABUTH; type: in vivo, Abutilon theophrasti; conditions: 80 g/ha, scored visually after 3 weeks vs untreated controls (100% = plants have died, 0% = like control plants)
Source text: as §1

[4] = system: VERPE; assay: Pre-emergence herbicidal action against VERPE; type: in vivo, Veronica persica
Source text: as §1

[5] = system: ABUTH; assay: Post-emergence herbicidal action against ABUTH; type: in vivo, Abutilon theophrasti; conditions: visual assessment about 3 weeks after treatment vs untreated controls
Experimental: as §2

[6] = system: VIOTR; assay: Pre-emergence herbicidal action against VIOTR; type: in vivo, Viola tricolor; conditions: dosage 80 g/ha
Source text: as §1

[7] = system: MATIN; assay: Pre-emergence herbicidal action against MATIN; type: in vivo, Matricaria inodora
Source text: as §1

[8] = system: PHBPU; assay: Post-emergence herbicidal action against PHBPU; type: in vivo, Pharbitis purpurea; conditions: dosage 20 g/ha
Experimental: as §2

[9] = system: SETVI; assay: Post-emergence herbicidal action against SETVI; type: in vivo, Setaria viridis
Experimental: as §2

[10] = system: ECHCG; assay: Post-emergence herbicidal action against ECHCG; type: in vivo, Echinochloa crus-galli
Experimental: as §2

[11] = system: ALOMY; assay: Pre-emergence herbicidal action against ALOMY; type: in vivo, Alopecurus myosuroides; conditions: 80 g/ha, pre-emergence, scored visually after 3 weeks vs untreated controls (100% = plants have died, 0% = like control plants)
Source text: as §1

[12] = system: ECHCG; assay: Pre-emergence herbicidal action against ECHCG; type: in vivo, Echinochloa crus-galli; conditions: 80 g/ha
Source text: as §1

[13] = system: DIGSA; assay: Pre-emergence herbicidal action against DIGSA; type: in vivo, Digitaria sanguinalis
Source text: as §1

[14] = system: DIGSA; assay: Post-emergence herbicidal action against DIGSA; type: in vivo, Digitaria sanguinalis; conditions: for Post-emergence action against DIGSA: 20 g/ha
Experimental: as §2

[15] = system: SETVI; assay: Pre-emergence herbicidal action against SETVI; type: in vivo, Setaria viridis; conditions: dosage 80 g/ha
Source text: as §1

[16] = 20 g/ha, scored visually after 3 weeks vs untreated controls, 100% = plants have died, 0% = like control plants
[17] = 80 g/ha, scored visually after 3 weeks vs untreated controls (100% = plants have died, 0% = like control plants)

Cc1c(C(=O)Nc2nnnn2C)ccc(C(F)(F)F)c1C(=O)NCC#N [Example 1-36]
90%: Pre-emergence action against VERPE in % ([4]; dosage 80 g/ha)
100%: Pre-emergence action against AMARE in % [1, 16] | Pre-emergence action against AMARE in % [1, 17] | Post-emergence action at 20 g/ha against AMARE in % [2] | Pre-emergence action against ABUTH (herbicidal activity) [3]

Cn1nnnc1NC(=O)c1ccc(C(F)F)c(C(=O)NCC#N)c1Cl [Example 1-158]
80%: Post-emergence action against ABUTH in % ([5]; dosage 20 g/ha) | Pre-emergence action against VERPE in % ([4]; dosage 20 g/ha) | Pre-emergence action against VERPE in % ([4]; dosage 80 g/ha)
90%: Post-emergence action at 20 g/ha against AMARE in % [2] | Pre-emergence action against VIOTR in % [6]
100%: Pre-emergence action against AMARE in % [1, 16] | Pre-emergence action against AMARE in % [1, 17]

CCn1nnnc1NC(=O)c1ccc(C(F)(F)F)c(C(=O)Nc2ccccc2)c1Cl [Example 2-143]
80%: Post-emergence action against PHBPU in % [8] | Post-emergence action against ABUTH in % ([5]; dosage 20 g/ha) | Pre-emergence action against VERPE in % ([4]; dosage 80 g/ha) | Pre-emergence action against VIOTR in % [6]
90%: Pre-emergence action against MATIN in % ([7]; dosage 20 g/ha)
100%: Pre-emergence action against AMARE in % [1, 17] | Pre-emergence action against MATIN in % ([7]; dosage 80 g/ha) | Pre-emergence action against ABUTH (herbicidal activity) [3]

CCn1nnnc1NC(=O)c1ccc(C(F)F)c(C(=O)NCC#N)c1Cl [Example 2-158]
100%: Pre-emergence action against AMARE in % [1, 17] | Pre-emergence action against ABUTH (herbicidal activity) [3] | Pre-emergence action against VIOTR in % [6]
80%: Pre-emergence action against VERPE in % ([4]; dosage 20 g/ha)
90%: Pre-emergence action against MATIN in % ([7]; dosage 80 g/ha) | Post-emergence action against SETVI in % ([9]; dosage 5 g/ha) | Post-emergence action against SETVI in % ([9]; dosage 20 g/ha) | Pre-emergence action against VERPE in % ([4]; dosage 80 g/ha)

Cc1nnc(NC(=O)c2ccc(C(F)F)c(C(=O)NCC3CC3)c2C)o1 [Example 6-34]
80%: Post-emergence action against ECHCG in % ([10]; dosage 5 g/ha) | Pre-emergence action against ALOMY (herbicidal activity) [11] | Post-emergence action against PHBPU in % [8] | Post-emergence action against ABUTH in % ([5]; dosage 5 g/ha) | Post-emergence action against ABUTH in % ([5]; dosage 20 g/ha) | Post-emergence action against DIGSA [14]
100%: Pre-emergence action against AMARE in % [1, 16] | Pre-emergence action against AMARE in % [1, 17] | Post-emergence action at 20 g/ha against AMARE in % [2] | Pre-emergence action against ECHCG in % [12] | Pre-emergence action against DIGSA in % ([13]; dosage 20 g/ha) | Pre-emergence action against DIGSA in % ([13]; dosage 80 g/ha) | Pre-emergence action against ABUTH (herbicidal activity) [3]
90%: Post-emergence action against ECHCG in % ([10]; dosage 20 g/ha) | Pre-emergence action against MATIN in % ([7]; dosage 80 g/ha) | Post-emergence action against SETVI in % ([9]; dosage 20 g/ha)

CNC(=O)c1c(C(F)(F)F)ccc(C(=O)Nc2nnc(C)o2)c1OC [Example 6-43]
80%: Pre-emergence action against MATIN in % ([7]; dosage 80 g/ha)
90%: Pre-emergence action against SETVI in % [15] | Post-emergence action against SETVI in % ([9]; dosage 20 g/ha) | Post-emergence action against DIGSA in % ([14]; 5 g/ha)
100%: Pre-emergence action against AMARE in % [1, 17] | Pre-emergence action against ECHCG in % [12] | Pre-emergence action against DIGSA in % ([13]; dosage 80 g/ha) | Pre-emergence action against ABUTH (herbicidal activity) [3] | Post-emergence action against DIGSA [14]

Source: patent publication US12655116B2, “Substituted isophthalic acid diamides” (Bayer Aktiengesellschaft, priority 2020, dated 2026)
